Source: ChEMBL document CHEMBL1681635, “II. SAR studies of pyridyl-piperazinyl-piperidine derivatives as CXCR3 chemokine antagonists” (Bioorg Med Chem Lett, 2011)

Key:
[1] = biological target: T1, C-X-C chemokine receptor type 3 (Homo sapiens, UniProt P49682); assay: Antagonist activity at human CXCR3; assay type: functional
T1 sequence (P49682 whole entry): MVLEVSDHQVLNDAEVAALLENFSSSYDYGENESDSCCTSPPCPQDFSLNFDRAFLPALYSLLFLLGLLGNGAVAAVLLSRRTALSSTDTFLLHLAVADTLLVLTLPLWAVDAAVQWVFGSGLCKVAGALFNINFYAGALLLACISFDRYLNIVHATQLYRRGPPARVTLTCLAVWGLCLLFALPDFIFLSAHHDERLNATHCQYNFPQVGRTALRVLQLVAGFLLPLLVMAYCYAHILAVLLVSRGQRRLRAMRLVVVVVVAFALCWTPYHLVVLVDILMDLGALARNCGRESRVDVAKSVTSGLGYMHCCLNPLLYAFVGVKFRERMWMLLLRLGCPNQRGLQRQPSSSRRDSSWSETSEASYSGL

[2] = AUC in Sprague-Dawley rat at 10 mg/kg, po after 6 hrs; assay type: ADME, organism-based; parameters: time < 6 hr, dose 10 mg/kg, route oral; conditions: plasma
[3] = AUC in Sprague-Dawley rat at 5 mg/kg, po after 24 hrs; assay type: ADME, organism-based; parameters: time < 24 hr, dose 5 mg/kg, route oral; conditions: plasma
[4] = Half life in Sprague-Dawley rat at 5 mg/kg, po; assay type: ADME, organism-based; parameters: dose 5 mg/kg, route oral; conditions: in vivo
Rattus norvegicus = assay: Volume of distribution at steady state in Sprague-Dawley rat at 5 mg/kg, po; assay type: ADME, organism-based; parameters: dose 5 mg/kg, route oral; conditions: in vivo
[5] = Clearance in Sprague-Dawley rat at 5 mg/kg, po; assay type: ADME, organism-based; parameters: dose 5 mg/kg, route oral; conditions: in vivo
Cytochrome P450 2D6 = Cytochrome P450 2D6 (Homo sapiens, UniProt P10635); assay: Inhibition of CYP2D6; assay type: ADME
Chain of Cytochrome P450 2D6 (P10635 whole entry): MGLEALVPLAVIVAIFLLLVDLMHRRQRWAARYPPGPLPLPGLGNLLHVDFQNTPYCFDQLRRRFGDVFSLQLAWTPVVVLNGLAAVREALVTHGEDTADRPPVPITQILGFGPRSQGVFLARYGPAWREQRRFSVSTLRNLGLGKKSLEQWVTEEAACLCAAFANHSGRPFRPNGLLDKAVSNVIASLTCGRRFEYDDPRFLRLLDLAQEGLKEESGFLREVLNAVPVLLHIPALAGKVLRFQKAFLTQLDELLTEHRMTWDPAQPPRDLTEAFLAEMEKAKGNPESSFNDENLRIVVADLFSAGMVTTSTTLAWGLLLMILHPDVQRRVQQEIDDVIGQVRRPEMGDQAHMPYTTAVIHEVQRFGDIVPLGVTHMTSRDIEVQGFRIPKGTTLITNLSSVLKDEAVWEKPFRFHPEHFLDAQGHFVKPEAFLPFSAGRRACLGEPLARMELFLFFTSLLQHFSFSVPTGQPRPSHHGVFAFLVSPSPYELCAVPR

Cytochrome P450 3A4 = Cytochrome P450 3A4 (Homo sapiens, UniProt P08684); assay: Inhibition of CYP3A4; assay type: ADME
Chain of Cytochrome P450 3A4 (P08684 whole entry): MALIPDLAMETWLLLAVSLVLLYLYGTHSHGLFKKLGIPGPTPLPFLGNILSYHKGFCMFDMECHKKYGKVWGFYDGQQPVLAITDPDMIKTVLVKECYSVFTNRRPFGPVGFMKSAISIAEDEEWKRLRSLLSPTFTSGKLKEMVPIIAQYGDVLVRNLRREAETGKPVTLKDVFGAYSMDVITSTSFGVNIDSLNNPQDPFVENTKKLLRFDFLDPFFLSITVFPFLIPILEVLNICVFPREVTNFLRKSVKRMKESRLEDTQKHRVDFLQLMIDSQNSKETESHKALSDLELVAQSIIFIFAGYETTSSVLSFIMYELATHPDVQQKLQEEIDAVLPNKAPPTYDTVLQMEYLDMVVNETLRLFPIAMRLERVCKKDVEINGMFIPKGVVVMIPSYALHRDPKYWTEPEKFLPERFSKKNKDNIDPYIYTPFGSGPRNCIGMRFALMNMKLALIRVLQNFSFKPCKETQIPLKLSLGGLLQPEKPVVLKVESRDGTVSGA

Cytochrome P450 2C19 = Cytochrome P450 2C19 (Homo sapiens, UniProt P33261); assay: Inhibition of CYP2C19; assay type: ADME
Chain of Cytochrome P450 2C19 (P33261 whole entry): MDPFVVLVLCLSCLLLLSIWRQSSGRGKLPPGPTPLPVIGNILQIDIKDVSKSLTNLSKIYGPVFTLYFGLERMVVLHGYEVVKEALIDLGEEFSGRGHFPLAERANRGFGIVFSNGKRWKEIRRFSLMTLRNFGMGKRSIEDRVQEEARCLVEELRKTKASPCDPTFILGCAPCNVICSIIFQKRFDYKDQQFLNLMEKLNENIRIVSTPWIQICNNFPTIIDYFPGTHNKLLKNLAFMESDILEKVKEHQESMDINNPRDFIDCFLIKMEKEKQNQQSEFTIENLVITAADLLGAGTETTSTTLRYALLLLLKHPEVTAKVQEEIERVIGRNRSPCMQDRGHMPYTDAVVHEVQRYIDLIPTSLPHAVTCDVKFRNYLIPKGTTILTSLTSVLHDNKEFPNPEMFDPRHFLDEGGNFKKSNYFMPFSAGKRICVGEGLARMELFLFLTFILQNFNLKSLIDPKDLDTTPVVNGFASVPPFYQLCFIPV

[6] = biological target: T2, C-X-C chemokine receptor type 3 (Mus musculus, UniProt O88410); assay: Antagonist activity at mouse CXCR3; assay type: functional
T2 sequence (O88410 whole entry): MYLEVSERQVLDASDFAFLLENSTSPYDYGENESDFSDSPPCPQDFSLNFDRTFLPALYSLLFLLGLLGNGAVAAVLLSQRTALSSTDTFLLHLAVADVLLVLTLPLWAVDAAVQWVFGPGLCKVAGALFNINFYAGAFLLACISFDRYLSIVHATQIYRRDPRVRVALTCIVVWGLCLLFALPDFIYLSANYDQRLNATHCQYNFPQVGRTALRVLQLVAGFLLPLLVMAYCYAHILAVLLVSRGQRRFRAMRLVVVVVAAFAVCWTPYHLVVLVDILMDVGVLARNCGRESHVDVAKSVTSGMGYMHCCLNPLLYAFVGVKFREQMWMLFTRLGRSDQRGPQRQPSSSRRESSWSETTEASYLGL

[7] = biological target: T3, C-X-C chemokine receptor type 3 (Rattus norvegicus, UniProt Q9JII9); assay: Antagonist activity at rat CXCR3; assay type: functional
T3 sequence (Q9JII9 whole entry): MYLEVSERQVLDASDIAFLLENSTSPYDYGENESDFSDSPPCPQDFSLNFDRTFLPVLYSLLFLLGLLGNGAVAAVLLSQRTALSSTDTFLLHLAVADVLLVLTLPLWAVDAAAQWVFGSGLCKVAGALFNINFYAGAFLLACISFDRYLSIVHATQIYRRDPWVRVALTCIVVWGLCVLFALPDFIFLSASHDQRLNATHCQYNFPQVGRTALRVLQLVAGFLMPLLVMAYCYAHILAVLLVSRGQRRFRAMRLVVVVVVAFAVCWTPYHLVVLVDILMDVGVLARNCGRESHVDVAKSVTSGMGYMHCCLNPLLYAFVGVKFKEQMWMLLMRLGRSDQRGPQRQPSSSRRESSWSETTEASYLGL

| SMILES | IC50 [1] | further results |
| --- | --- | --- |
| O=C(NCc1ccc(F)c(F)c1)c1cnc(N2CCN(C3CCN(Cc4ccc(Cl)cc4)CC3)C(=O)C2)c(Cl)c1 | 1400 nM | – |
| CNC(=O)c1cnc(N2CCC(N3CCN(Cc4ccc(Cl)cc4)C[C@H]3C)CC2)c(Cl)c1 | 7350 nM | – |
| CCNC(=N)c1cnc(N2CCN(C3CCN(Cc4ccc(Cl)cc4)CC3)[C@@H](C)C2)c(Cl)c1 | 83 nM | – |
| C[C@H]1CN(c2ncc(C(=O)Nc3ccc(F)c(F)c3)cc2Cl)CCN1C1CCN(Cc2ccc(Cl)cc2)CC1 | 22 nM | – |
| CC[C@H]1CN(c2ncc(C(=O)NC)cc2Cl)CCN1C1CCN(Cc2ccc(Cl)cc2)CC1 | 3 nM | – |
| CNC(=O)c1cnc(N2CCN(C3CCN(Cc4ccc[nH]4)CC3)[C@@H](C)C2)c(Cl)c1 | 8060 nM | – |
| CNC(=O)c1cnc(N2CCN(C3CCN(Cc4ccc(Cl)cc4)CC3)[C@@H](c3ccccc3)C2)c(Cl)c1 | 830 nM | – |
| C[C@H]1CN(c2ncc(C(=O)NCc3ccc(F)c(F)c3)cc2Cl)CCN1C1CCN(Cc2ccc(Cl)cc2)CC1 | 6 nM | AUC at 6 h [2]: 0.5 µM·h; AUC at 24 h [3]: 1.1 µM·h; half-life [4]: 6.8 h; Vdss (Rattus norvegicus): 17.6 L/kg; CL/F [5]: 32.6 mL/min/kg; IC50 (Cytochrome P450 2D6): > 10000 nM; IC50 (Cytochrome P450 3A4): > 10000 nM; IC50 (Cytochrome P450 2C19): > 10000 nM; IC50 [6]: 6.7 nM; IC50 [7]: 9.9 nM |
| CNC(=O)c1cnc(N2CCN(C3CCN(Cc4ccc(Cl)cc4)CC3)[C@@H](C)C2)c(Cl)c1 | 32 nM | – |
| CNC(=O)c1cnc(N2CCN(C3CCN(C(C)c4ccc(Cl)cc4)CC3)[C@@H](C)C2)c(Cl)c1 (stereo in doubt; 6l) | 110 nM | – |
| O=C(NCc1ccc(Cl)c(Cl)c1)c1cnc(N2CCC(N3CCN(Cc4ccc(Cl)cc4)CC3)CC2)c(Cl)c1 | 4500 nM | – |
| CNC(=O)c1cnc(N2CCN(C3CCN(Cc4cccs4)CC3)[C@@H](C)C2)c(Cl)c1 | 1980 nM | – |
| C[C@H]1CN(c2ncc(C(=O)N3CCC3)cc2Cl)CCN1C1CCN(Cc2ccc(Cl)cc2)CC1 | 630 nM | – |
| CNC(=O)c1cnc(N2CCN(C3CCN(Cc4ccc(Cl)cc4Cl)CC3)[C@@H](C)C2)c(Cl)c1 | 17 nM | – |
| CNC(=O)c1cnc(N2CCN(C3CCN(Cc4ccc(Cl)cc4)CC3)C(CO)C2)c(Cl)c1 (stereo not given) | 910 nM | – |
| CCNC(=O)c1cnc(N2CCN(C3CCN(Cc4ccc(Cl)cc4)CC3)[C@@H](C(C)C)C2)c(Cl)c1 | 23 nM | – |
| C[C@@H]1CN(C2CCN(Cc3ccc(Cl)cc3)CC2)CCN1c1ncc(C(=O)NCc2ccc(Cl)c(Cl)c2)cc1Cl | 220 nM | – |
| C[C@H]1CN(c2ncc(C(=O)NCC3CCCCC3)cc2Cl)CCN1C1CCN(Cc2ccc(Cl)cc2)CC1 | 2.4 nM | – |
| CNC(=O)c1cnc(N2CCN(C3CCN(Cc4ccc(C(F)(F)F)cc4)CC3)[C@@H](C)C2)c(Cl)c1 | 63 nM | – |
| CC1CN(C2CCN(Cc3ccc(Cl)cc3)CC2)CCN1c1ccc(C(=O)NCc2ccc(F)c(F)c2)cn1 (stereo not given) | 2700 nM | – |

| SMILES | IC50 [1] | further results |
| --- | --- | --- |
| CNC(=O)c1cnc(N2CCN(C3CCN(Cc4ccc(Cl)cc4)CC3)C(C(=O)O)C2)c(Cl)c1 (stereo not given) | > 50000 nM | – |
| CNC(=O)c1cnc(N2CCN(C3CCN(Cc4ccc(Cl)cc4)CC3C)CC2)c(Cl)c1 (stereo not given) | 64 nM | – |
| CNC(=O)c1cnc(N2CCN(C3CCN(Cc4ccc(Cl)cc4)C(C)C3)CC2)c(Cl)c1 (stereo not given) | 31 nM | – |
| C[C@H]1CN(C2CCN(Cc3ccc(Cl)cc3)CC2)CCN1c1ncc(C(=O)NCc2ccc(Cl)c(Cl)c2)cc1Cl | 39 nM | – |
| CNC(=O)c1cnc(N2CCN(C3CCN(C4CCc5cc(Cl)ccc54)CC3)[C@@H](C)C2)c(Cl)c1 (single isomer, unassigned; isomer 1) | 29 nM | – |
| CC(C)NC(=O)c1cnc(N2CCN(C3CCN(Cc4ccc(Cl)cc4)CC3)[C@@H](C)C2)c(Cl)c1 | 5 nM | – |
| CNC(=O)c1cnc(N2CCN(C3CCN(Cc4ccc(Cl)cc4)CC3)C(COC)C2)c(Cl)c1 (stereo not given) | 3100 nM | – |
| CNC(=O)c1cnc(N2CCN(C3CCN(C(=O)c4ccnc5cc(Cl)ccc45)CC3)[C@@H](C)C2)c(Cl)c1 | > 10000 nM | – |
| O=C(NCc1ccc(F)c(F)c1)c1cnc(N2CCN(C3CCN(Cc4ccc(Cl)cc4)CC3)CC2)c(Cl)c1 | – | IC50 [6]: 84 nM; IC50 [7]: 97 nM |
| CCNC(=O)c1cnc(N2CCN(C3CCN(Cc4ccc(Cl)cc4)CC3)[C@@H](CC)C2)c(Cl)c1 | 0.3 nM | AUC at 6 h [2]: 0.41 µM·h; IC50 [6]: 0.5 nM; IC50 [7]: 1.2 nM |
| O=C(NCc1ccc(Cl)c(Cl)c1)c1cnc(N2CCN(C3CCN(Cc4ccc(Cl)cc4)CC3)CC2)c(Cl)c1 | 35 nM | – |
| CNC(=O)c1cnc(N2CCN(C3CCN(Cc4ccc(Cl)cc4)C(=O)C3)[C@@H](C)C2)c(Cl)c1 (stereo not given in full) | 7000 nM | – |
| CNC(=O)c1cnc(N2CCN(C3CCN(Cc4ccc(Cl)cc4)CC3)CC2)c(Cl)c1 | 560 nM | – |
| CC(=O)Nc1cnc(N2CCN(C3CCN(Cc4ccc(Cl)cc4)CC3)[C@@H](C)C2)c(Cl)c1 | 8 nM | – |
| CNC(=O)c1cnc(N2CCN(C3CCN(Cc4ccc(C)cc4)CC3)[C@@H](C)C2)c(Cl)c1 | 87 nM | – |
| C[C@H]1CN(c2ncc(C(=O)NCc3ccc(Cl)c(Cl)c3)cc2Cl)CCN1C1CCN(Cc2ccc(Cl)cc2)CC1 | 16 nM | – |
| CCNC(=O)c1cnc(N2CCN(C3CCN(Cc4ccc(Cl)cc4F)CC3)C(C3CC3)C2)c(Cl)c1 (stereo not given) | 32 nM | – |
| CCNC(=O)c1cnc(N2CCN(C3CCN(Cc4ccc(Cl)cc4)CC3)[C@@H](C)C2)c(Cl)c1 | 2.3 nM | – |
| CNC(=O)c1cnc(N2CCN(C3CCN(Cc4ccc(Cl)cc4)CC3)[C@@H](CC(C)C)C2)c(Cl)c1 | 260 nM | – |
| CNC(=O)c1cnc(N2CCN(C3CCN(Cc4ccccn4)CC3)[C@@H](C)C2)c(Cl)c1 | 7990 nM | – |

| SMILES | IC50 [1] | further results |
| --- | --- | --- |
| C[C@H]1CN(c2ncc(C(=O)N3CCCCC3)cc2Cl)CCN1C1CCN(Cc2ccc(Cl)cc2)CC1 | 900 nM | – |
| CNC(=O)c1cnc(N2CCN(C3CCN(Cc4ccc(S(C)(=O)=O)cc4)CC3)[C@@H](C)C2)c(Cl)c1 | > 10000 nM | – |
| CNC(=O)c1cnc(N2CCN(C3CCN(Cc4ccc(Cl)cc4)CC3)C(C(=O)NC)C2)c(Cl)c1 (stereo not given) | 8900 nM | – |
| CNC(=O)c1cnc(N2CCC(N3CCN(Cc4ccc(Cl)cc4)CC3)C(C)C2)c(Cl)c1 (stereo not given) | 280 nM | – |
| CC1(N2CCN(c3ncc(C(=O)NCc4ccc(Cl)c(Cl)c4)cc3Cl)CC2)CCN(Cc2ccc(Cl)cc2)CC1 | 27 nM | – |
| C[C@H]1CN(c2ncc(NC(=O)C3CC3)cc2Cl)CCN1C1CCN(Cc2ccc(Cl)cc2)CC1 | 20 nM | – |
| CNC(=O)c1cnc(N2CCN(C3CCN(Cc4ccc(Cl)cc4)CC3)C(C(=O)OC)C2)c(Cl)c1 (stereo not given) | 140 nM | – |
| CNC(=O)c1cnc(N2CCN(C3CCN(C(=O)c4ccc(Cl)cc4)CC3)[C@@H](C)C2)c(Cl)c1 | 210 nM | – |
| CNC(=O)c1cnc(N2CCN(C3CCN(Cc4ccc(F)cc4Cl)CC3)[C@@H](C)C2)c(Cl)c1 | 58 nM | – |
| C[C@H]1CN(c2ncc(C(N)=O)cc2Cl)CCN1C1CCN(Cc2ccc(Cl)cc2)CC1 | 39 nM | – |
| CNC(=O)c1cnc(N2CCN(C3CCN(Cc4ccco4)CC3)[C@@H](C)C2)c(Cl)c1 | 8100 nM | – |
| CNC(=O)c1cnc(N2CCN(C3CCN(CC(=O)c4ccc(F)cc4)CC3)[C@@H](C)C2)c(Cl)c1 | > 10000 nM | – |
| CNC(=O)c1cnc(N2CCC(N3CCN(Cc4ccc(Cl)cc4)C[C@@H]3C)CC2)c(Cl)c1 | 12500 nM | – |
| CCNC(=O)c1cnc(N2CCN(C3CCN(Cc4ccc(Cl)cc4F)CC3)[C@@H](CC)C2)c(Cl)c1 | – | AUC at 6 h [2]: 0.95 µM·h; IC50 [6]: 1.1 nM; IC50 [7]: 1.6 nM |
| C[C@H]1CN(c2ncc(C(=N)N)cc2Cl)CCN1C1CCN(Cc2ccc(Cl)cc2)CC1 | 80 nM | – |
| CNC(=O)c1cnc(N2CCN(C3CCN(C4CCc5cc(Cl)ccc54)CC3)[C@@H](C)C2)c(Cl)c1 (single isomer, unassigned; isomer 2) | 35 nM | – |
| CNC(=O)c1cnc(N2CCN(C3CCN(C(C)c4ccc(Cl)cc4)CC3)[C@@H](C)C2)c(Cl)c1 (single isomer, unassigned; isomer 1) | 5 nM | – |
| CNC(=O)c1cnc(N2CCN(C3CCN(Cc4ccc(Cl)cc4F)CC3)[C@@H](C)C2)c(Cl)c1 | 18 nM | – |
| COC(=O)c1cnc(N2CCN(C3CCN(Cc4ccc(Cl)cc4)CC3)[C@@H](C)C2)c(Cl)c1 | 520 nM | – |
